Source: patent US10961231B2, “NTCP inhibitors” (National Institute of Biological Sciences, Beijing, priority 2018, dated 2021)

Target: T1, NTCP (Homo sapiens, UniProt Q14973)
T1 sequence (Q14973 1-349): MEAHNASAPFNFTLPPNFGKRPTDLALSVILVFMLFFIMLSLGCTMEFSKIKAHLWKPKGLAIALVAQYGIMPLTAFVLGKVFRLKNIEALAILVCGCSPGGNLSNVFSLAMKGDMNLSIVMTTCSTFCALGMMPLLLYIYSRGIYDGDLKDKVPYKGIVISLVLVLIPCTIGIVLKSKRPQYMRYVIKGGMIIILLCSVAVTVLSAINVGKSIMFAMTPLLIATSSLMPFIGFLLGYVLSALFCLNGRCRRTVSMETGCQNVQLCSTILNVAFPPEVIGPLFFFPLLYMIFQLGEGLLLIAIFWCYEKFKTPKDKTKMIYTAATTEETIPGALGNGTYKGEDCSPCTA
Test: [3H]-TCA uptake assay (NTCP inhibition)
Assay type: cell-based
Conditions: IC50, given as a range, marked * (asterisk not explained)
In short: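 Read-out is liquid scintillation counting of Triton X-100 lysates after 15 min, 37° C uptake of 1 μM [3H]-taurocholate in Na+ Ringer's buffer (145 mM Na). Beforehand, PTH and HepG2-NTCP cells had 24 h in PMM for NTCP induction and 2 h of compound or DMSO treatment.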

Compound	IC50
CCC1NC(=O)C(C2OC(Oc3ccc(Cl)c(OCCOC)c3)CC2C)N(C)C(=O)C(C(C)C)N(C)C(=O)C(CC(C)C)N(C)C(=O)C(CC(C)C)N(C)C(=O)C(C)NC(=O)C(C)NC(=O)C(CC(C)C)N(C)C(=O)C(C(C)C)NC(=O)C(CC(C)C)N(C)C(=O)CN(C)C1=O (centres unmarked) [Compound 45A-o]	1000 to 100000 nM
CCC1NC(=O)C(C2OC(Oc3ccc(Cl)c(OCCO)c3)CC2C)N(C)C(=O)C(C(C)C)N(C)C(=O)C(CC(C)C)N(C)C(=O)C(CC(C)C)N(C)C(=O)C(C)NC(=O)C(C)NC(=O)C(CC(C)C)N(C)C(=O)C(C(C)C)NC(=O)C(CC(C)C)N(C)C(=O)CN(C)C1=O (centres unmarked) [Compound 46A-o]	1000 to 100000 nM
CCC1NC(=O)C(C2OC(Oc3cccc(NC)c3)CC2C)N(C)C(=O)C(C(C)C)N(C)C(=O)C(CC(C)C)N(C)C(=O)C(CC(C)C)N(C)C(=O)C(C)NC(=O)C(C)NC(=O)C(CC(C)C)N(C)C(=O)C(C(C)C)NC(=O)C(CC(C)C)N(C)C(=O)CN(C)C1=O (centres unmarked) [Compound 47A-o]	1000 to 100000 nM
CCC1NC(=O)C(C2OC(Oc3cccc(NCc4ccccc4)c3)CC2C)N(C)C(=O)C(C(C)C)N(C)C(=O)C(CC(C)C)N(C)C(=O)C(CC(C)C)N(C)C(=O)C(C)NC(=O)C(C)NC(=O)C(CC(C)C)N(C)C(=O)C(C(C)C)NC(=O)C(CC(C)C)N(C)C(=O)CN(C)C1=O (centres unmarked) [Compound 48A-o]	1000 to 100000 nM
CCC1NC(=O)C(C2OC(Oc3cccc(N(C)CC)c3)CC2C)N(C)C(=O)C(C(C)C)N(C)C(=O)C(CC(C)C)N(C)C(=O)C(CC(C)C)N(C)C(=O)C(C)NC(=O)C(C)NC(=O)C(CC(C)C)N(C)C(=O)C(C(C)C)NC(=O)C(CC(C)C)N(C)C(=O)CN(C)C1=O (centres unmarked) [Compound 49A-o]	1000 to 100000 nM
CCCN(C)c1cccc(OC2CC(C)C(C3C(=O)NC(CC)C(=O)N(C)CC(=O)N(C)C(CC(C)C)C(=O)NC(C(C)C)C(=O)N(C)C(CC(C)C)C(=O)NC(C)C(=O)NC(C)C(=O)N(C)C(CC(C)C)C(=O)N(C)C(CC(C)C)C(=O)N(C)C(C(C)C)C(=O)N3C)O2)c1 (centres unmarked) [Compound 50A-o]	1000 to 100000 nM
CCC1NC(=O)C(C2OC(Oc3ccc(N(C)C)cc3)CC2C)N(C)C(=O)C(C(C)C)N(C)C(=O)C(CC(C)C)N(C)C(=O)C(CC(C)C)N(C)C(=O)C(C)NC(=O)C(C)NC(=O)C(CC(C)C)N(C)C(=O)C(C(C)C)NC(=O)C(CC(C)C)N(C)C(=O)CN(C)C1=O (centres unmarked) [Compound 51A-o]	1000 to 100000 nM
CCC1NC(=O)C(C2OC(Oc3cccc(OCc4ccccn4)c3)CC2C)N(C)C(=O)C(C(C)C)N(C)C(=O)C(CC(C)C)N(C)C(=O)C(CC(C)C)N(C)C(=O)C(C)NC(=O)C(C)NC(=O)C(CC(C)C)N(C)C(=O)C(C(C)C)NC(=O)C(CC(C)C)N(C)C(=O)CN(C)C1=O (centres unmarked) [Compound 52A-o]	1000 to 100000 nM
CCC1NC(=O)C(C2OC(Oc3cccc(OCc4cccnc4)c3)CC2C)N(C)C(=O)C(C(C)C)N(C)C(=O)C(CC(C)C)N(C)C(=O)C(CC(C)C)N(C)C(=O)C(C)NC(=O)C(C)NC(=O)C(CC(C)C)N(C)C(=O)C(C(C)C)NC(=O)C(CC(C)C)N(C)C(=O)CN(C)C1=O (centres unmarked) [Compound 53A-o]	10000 nM
CCC1NC(=O)C(C2OC(Oc3cccc(OCc4ccncc4)c3)CC2C)N(C)C(=O)C(C(C)C)N(C)C(=O)C(CC(C)C)N(C)C(=O)C(CC(C)C)N(C)C(=O)C(C)NC(=O)C(C)NC(=O)C(CC(C)C)N(C)C(=O)C(C(C)C)NC(=O)C(CC(C)C)N(C)C(=O)CN(C)C1=O (centres unmarked) [Compound 54A-o]	1000 to 100000 nM

Same assay, conditions: given as a range, marked * (asterisk not explained)

Compound	IC50
CCC1NC(=O)C(C2OC(Oc3cc(OCCOC)cc(OCC4CCOCC4)c3)CC2C)N(C)C(=O)C(C(C)C)N(C)C(=O)C(CC(C)C)N(C)C(=O)C(CC(C)C)N(C)C(=O)C(C)NC(=O)C(C)NC(=O)C(CC(C)C)N(C)C(=O)C(C(C)C)NC(=O)C(CC(C)C)N(C)C(=O)CN(C)C1=O (centres unmarked) [Compound 55-o]	1000 to 100000 nM
CCC1NC(=O)C(C2OC(Sc3cc(OCCOC)cc(OCC4CCOCC4)c3)CC2C)N(C)C(=O)C(C(C)C)N(C)C(=O)C(CC(C)C)N(C)C(=O)C(CC(C)C)N(C)C(=O)C(C)NC(=O)C(C)NC(=O)C(CC(C)C)N(C)C(=O)C(C(C)C)NC(=O)C(CC(C)C)N(C)C(=O)CN(C)C1=O (centres unmarked) [Compound 55]	1000 to 100000 nM
CCC1NC(=O)C(C2OC(Oc3cc(OCCOC)cc(OCc4cccs4)c3)CC2C)N(C)C(=O)C(C(C)C)N(C)C(=O)C(CC(C)C)N(C)C(=O)C(CC(C)C)N(C)C(=O)C(C)NC(=O)C(C)NC(=O)C(CC(C)C)N(C)C(=O)C(C(C)C)NC(=O)C(CC(C)C)N(C)C(=O)CN(C)C1=O (centres unmarked) [Compound 56-o]	1000 to 100000 nM
CCC1NC(=O)C(C2OC(Sc3cc(OCCOC)cc(OCc4cccs4)c3)CC2C)N(C)C(=O)C(C(C)C)N(C)C(=O)C(CC(C)C)N(C)C(=O)C(CC(C)C)N(C)C(=O)C(C)NC(=O)C(C)NC(=O)C(CC(C)C)N(C)C(=O)C(C(C)C)NC(=O)C(CC(C)C)N(C)C(=O)CN(C)C1=O (centres unmarked) [Compound 56]	1000 to 100000 nM

Same assay, conditions: given as a range; assay not given

Compound	IC50
CCC1NC(=O)C(C2OC(Sc3ccc(Cl)c(OCCOC)c3)CC2C)N(C)C(=O)C(C(C)C)N(C)C(=O)C(CC(C)C)N(C)C(=O)C(CC(C)C)N(C)C(=O)C(C)NC(=O)C(C)NC(=O)C(CC(C)C)N(C)C(=O)C(C(C)C)NC(=O)C(CC(C)C)N(C)C(=O)CN(C)C1=O [Compound 45A, [2-((2R,3R)-5-(4-chloro-3-(2-methoxyethoxy)phenylthio)-3-methyltetrahydrofuran-2-yl)-2-(methylamino)acetic acid]^1-cyclosporin A]	1 to 1000 nM
CCC1NC(=O)C(C2OC(Sc3ccc(Cl)c(OCCO)c3)CC2C)N(C)C(=O)C(C(C)C)N(C)C(=O)C(CC(C)C)N(C)C(=O)C(CC(C)C)N(C)C(=O)C(C)NC(=O)C(C)NC(=O)C(CC(C)C)N(C)C(=O)C(C(C)C)NC(=O)C(CC(C)C)N(C)C(=O)CN(C)C1=O [Compound 46A, [2-((2R,3R)-5-(4-chloro-3-(2-hydroxyethoxy)phenylthio)-3-methyltetrahydrofuran-2-yl)-2-(methylamino)acetic acid]^1-cyclosporin A]	1 to 1000 nM
CCC1NC(=O)C(C2OC(Sc3cccc(NC)c3)CC2C)N(C)C(=O)C(C(C)C)N(C)C(=O)C(CC(C)C)N(C)C(=O)C(CC(C)C)N(C)C(=O)C(C)NC(=O)C(C)NC(=O)C(CC(C)C)N(C)C(=O)C(C(C)C)NC(=O)C(CC(C)C)N(C)C(=O)CN(C)C1=O [Compound 47A, [2-((2R,3R)-3-methyl-5-(3-(methylamino)phenylthio)tetrahydrofuran-2-yl)-2-(methylamino)acetic acid]^1-cyclosporin A]	1 to 1000 nM
CCC1NC(=O)C(C2OC(Sc3cccc(NCc4ccccc4)c3)CC2C)N(C)C(=O)C(C(C)C)N(C)C(=O)C(CC(C)C)N(C)C(=O)C(CC(C)C)N(C)C(=O)C(C)NC(=O)C(C)NC(=O)C(CC(C)C)N(C)C(=O)C(C(C)C)NC(=O)C(CC(C)C)N(C)C(=O)CN(C)C1=O [Compound 48A, [2-((2R,3R)-5-(3-(benzylamino)phenylthio)-3-methyltetrahydrofuran-2-yl)-2-(methylamino)acetic acid]^1-cyclosporin A]	1 to 1000 nM
CCC1NC(=O)C(C2OC(Sc3cccc(N(C)CC)c3)CC2C)N(C)C(=O)C(C(C)C)N(C)C(=O)C(CC(C)C)N(C)C(=O)C(CC(C)C)N(C)C(=O)C(C)NC(=O)C(C)NC(=O)C(CC(C)C)N(C)C(=O)C(C(C)C)NC(=O)C(CC(C)C)N(C)C(=O)CN(C)C1=O [Compound 49A, [2-((2R,3R)-5-(3-(ethyl(methyl)amino)phenylthio)-3-methyltetrahydrofuran-2-yl)-2-(methylamino)acetic acid]^1-cyclosporin A]	1 to 1000 nM
CCCN(C)c1cccc(SC2CC(C)C(C3C(=O)NC(CC)C(=O)N(C)CC(=O)N(C)C(CC(C)C)C(=O)NC(C(C)C)C(=O)N(C)C(CC(C)C)C(=O)NC(C)C(=O)NC(C)C(=O)N(C)C(CC(C)C)C(=O)N(C)C(CC(C)C)C(=O)N(C)C(C(C)C)C(=O)N3C)O2)c1 [Compound 50A, [2-((2R,3R)-3-methyl-5-(3-(methyl(propyl)amino)phenylthio)tetrahydrofuran-2-yl)-2-(methylamino)acetic acid]^1-cyclosporin A]	1 to 1000 nM
CCC1NC(=O)C(C2OC(Sc3cccc(OCc4ccccn4)c3)CC2C)N(C)C(=O)C(C(C)C)N(C)C(=O)C(CC(C)C)N(C)C(=O)C(CC(C)C)N(C)C(=O)C(C)NC(=O)C(C)NC(=O)C(CC(C)C)N(C)C(=O)C(C(C)C)NC(=O)C(CC(C)C)N(C)C(=O)CN(C)C1=O [Compound 52A, [2-((2R,3R)-3-methyl-5-(3-(pyridin-2-ylmethoxy)phenylthio)tetrahydrofuran-2-yl)-2-(methylamino)acetic acid]^1-cyclosporin A]	1 to 1000 nM
CCC1NC(=O)C(C2OC(Sc3cccc(OCc4cccnc4)c3)CC2C)N(C)C(=O)C(C(C)C)N(C)C(=O)C(CC(C)C)N(C)C(=O)C(CC(C)C)N(C)C(=O)C(C)NC(=O)C(C)NC(=O)C(CC(C)C)N(C)C(=O)C(C(C)C)NC(=O)C(CC(C)C)N(C)C(=O)CN(C)C1=O [Compound 53A, [2-((2R,3R)-3-methyl-5-(3-(pyridin-3-ylmethoxy)phenylthio)tetrahydrofuran-2-yl)-2-(methylamino)acetic acid]^1-cyclosporin A]	1 to 1000 nM
CCC1NC(=O)C(C2OC(Sc3cccc(OCc4ccncc4)c3)CC2C)N(C)C(=O)C(C(C)C)N(C)C(=O)C(CC(C)C)N(C)C(=O)C(CC(C)C)N(C)C(=O)C(C)NC(=O)C(C)NC(=O)C(CC(C)C)N(C)C(=O)C(C(C)C)NC(=O)C(CC(C)C)N(C)C(=O)CN(C)C1=O [Compound 54A, [2-((2,3R)-3-methyl-5-(3-(pyridin-4-ylmethoxy)phenylthio)tetrahydrofuran-2-yl)-2-(methylamino)acetic acid]^1-cyclosporin A]	1 to 1000 nM
